# Data: the NIST ThermoML archive (doi:10.1007/s10765-009-0602-6)
# Several values for one entry are separate records, joined by “and”; a condition that tells them apart may be missing. Equal entries are not always repeated. ± gives the expanded uncertainty stated by the source.
# Assay: xn = mol fraction of the nth substance listed
# Settings: Liquid, Other PVT measurement, x1 = 0.2607
smiles,measurement,setting,value
N [ammonia] + O,mass density,508.07 K,671.23 ± 2.7 kg/m3
same,mass density,519.77 K,649.65 ± 2.5 kg/m3
same,mass density,545.62 K,594.32 ± 2.1 kg/m3
same,mass density,561.03 K,552.58 ± 1.9 kg/m3
same,mass density,565.36 K,540.25 ± 1.8 kg/m3
same,mass density,580.18 K,476.26 ± 1.4 kg/m3
same,mass density,584.95 K,456.58 ± 1.3 kg/m3
same,mass density,585.31 K,120.03 ± 0.17 kg/m3
same,mass density,594.14 K,147.43 ± 0.22 kg/m3
same,mass density,595.16 K,376.89 ± 0.91 kg/m3
same,mass density,597.36 K,160.07 ± 0.24 kg/m3
same,mass density,597.56 K,342.19 ± 0.78 kg/m3
same,mass density,598.33 K,329 ± 0.73 kg/m3
same,mass density,598.96 K,320.33 ± 0.69 kg/m3
same,mass density,599.42 K,312.91 ± 0.67 kg/m3
same,mass density,599.57 K,311.19 ± 0.66 kg/m3
same,mass density,599.67 K,310.95 ± 0.66 kg/m3
same,mass density,599.78 K,308.35 ± 0.65 kg/m3
same,mass density,599.89 K,307.35 ± 0.65 kg/m3
same,mass density,600.02 K,305.44 ± 0.64 kg/m3
same,mass density,600.17 K,303.47 ± 0.64 kg/m3
same,mass density,600.29 K,301.94 ± 0.63 kg/m3
same,mass density,600.48 K,299.79 ± 0.62 kg/m3
same,mass density,600.63 K,297.6 ± 0.62 kg/m3
same,mass density,600.81 K,295.31 ± 0.61 kg/m3
same,mass density,600.93 K,292.97 ± 0.6 kg/m3
same,mass density,601.05 K,291.16 ± 0.59 kg/m3
same,mass density,601.16 K,188.05 ± 0.3 kg/m3
same,mass density,601.34 K,285.71 ± 0.58 kg/m3
same,mass density,601.75 K,195.99 ± 0.32 kg/m3
same,mass density,602.05 K,271.09 ± 0.53 kg/m3
same,mass density,602.26 K,206 ± 0.35 kg/m3
same,mass density,602.45 K,260.02 ± 0.5 kg/m3
same,mass density,602.74 K,214.83 ± 0.37 kg/m3
same,mass density,602.85 K,218.92 ± 0.38 kg/m3
same,mass density,602.91 K,243.98 ± 0.45 kg/m3
same,mass density,602.96 K,230.31 ± 0.41 kg/m3 and 224.53 ± 0.4 kg/m3
same,mass density,602.97 K,227.54 ± 0.41 kg/m3
